Data as given in US7754866B2 (Arena Pharmaceuticals, Inc., priority 1997, dated 2010).
Values joined by “and” are separate entries in the source; they are usually repeats but may differ in a detail not shown here. Identical values can stand only once. Like-named read-outs stand apart in the source and are kept apart here.

Tests used:
[1] = molecular target: T1, wild type human 5HT2A receptor (Homo sapiens, UniProt P28223); assay: Competitive binding assay, [3H]LSD, WT 5HT2A; conditions: for difference in selectivity preference (IC50 values) for the 5HT2A receptor compared with the 5HT2C receptor: 5HT2A versus 5HT2C
T1 construct: expressed in transfected cells; host or cells: COS-7 cells, pCMV vector
T1 sequence (P28223 whole entry T25N/H452Y): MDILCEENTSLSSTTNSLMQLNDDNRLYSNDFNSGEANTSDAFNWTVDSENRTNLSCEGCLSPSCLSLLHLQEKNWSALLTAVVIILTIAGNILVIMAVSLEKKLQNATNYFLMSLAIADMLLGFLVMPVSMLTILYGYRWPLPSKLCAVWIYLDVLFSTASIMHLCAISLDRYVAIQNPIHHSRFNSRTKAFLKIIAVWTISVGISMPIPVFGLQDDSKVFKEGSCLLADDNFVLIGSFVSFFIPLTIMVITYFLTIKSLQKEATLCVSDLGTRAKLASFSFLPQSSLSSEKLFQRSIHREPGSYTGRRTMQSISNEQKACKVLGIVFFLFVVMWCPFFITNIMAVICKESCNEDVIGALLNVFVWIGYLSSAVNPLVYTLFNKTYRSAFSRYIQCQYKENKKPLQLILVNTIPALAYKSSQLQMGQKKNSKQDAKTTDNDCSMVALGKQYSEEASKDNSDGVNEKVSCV

[2] = molecular target: T2, human mutated 5HT2A receptor, AP-3 (Homo sapiens, UniProt P28223, T25N); assay: Inositol phosphate accumulation assay, AP-3; assay type: cell-based; conditions: for remaining activity at 10 µM: read-out: IP3 % of Control;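 for all read-outs here: transfected 293 cells prelabeled with 3H-inositol, exposed to compound 120 min at 37 °C with LiCl and pargyline, inositol trisphosphates isolated by anion exchange and counted by scintillation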
T2 construct: Inositol Phosphate Accumulation AP-3 IC50 Value (nM); other: several concentrations; IP3 % of Control; other: one concentration of 10 μM, triplicate; control without test compound
T2 sequence (P28223 whole entry T25N, looked up): as the sequence (P28223 whole entry T25N/H452Y) above, with Y452H counted along it

[3] = competitive binding using LSD, read-out: WT 5HT2A LSD IC50
[4] = several concentrations, read-out: IP3 AP-3 IC50
[5] = one concentration of 10 μM, triplicate, control without test compound

In the case of `Cn1cc(Br)c(-c2cccc(NC(=O)Nc3ccc(OC(F)(F)F)cc3)c2)n1` [Compound 103487, N-[3-(4-bromo-1-methylpyrazol-3-yl)phenyl][{(4-trifluoromethoxy)phenyl}amino]carboxamide], the IC50 ([1]; 1 nM [3H]LSD, COS7 membranes, read-out: Competitive Binding WT 5HT2A ([3H]LSD) IC50 Value) is reported as 46 nM and the IC50 ([2]; read-out: Inositol Phosphate Accumulation AP-3 IC50 Value) is reported as 52 nM and 90 nM.
`CSc1ccc(NC(=O)Nc2cccc(-c3nn(C)cc3Br)c2)cc1` [Compound 116079, N-[3-(4-bromo-1-methylpyrazol-3-yl)phenyl][(4-methylthiophenyl)amino]carboxamide] was tested, and the IC50 [1, 3] was 4 nM, the remaining activity at 10 µM [2] was 16% and the IC50 [2, 4] was 17 nM.
In the case of `Cn1cc(Br)c(-c2cccc(NC(=O)Nc3ccc(Cl)cc3)c2)n1` [Compound 116081, N-[3-(4-bromo-1-methylpyrazol-3-yl)phenyl][(4-chlorophenyl)amino]carboxamide], the “difference in selectivity preference (IC50 values) for the 5HT2A receptor compared with the 5HT2C receptor” value [1] is reported as 100 fold, the IC50 [1, 3] is reported as 11 nM and the remaining activity at 10 µM [2] is reported as 10%. For the same compound, the IC50 [2, 4] was 3.2 nM.
With `Cn1cc(Br)c(-c2cccc(NC(=O)Nc3ccc(F)cc3)c2)n1` [Compound 116082, {[3-(4-bromo-1-methylpyrazol-3-yl)phenyl]-amino}-N-(4-fluorophenyl)carboxamide] the “difference in selectivity preference (IC50 values) for the 5HT2A receptor compared with the 5HT2C receptor” value [1] was 100 fold, the IC50 [1, 3] was 7 nM and the remaining activity at 10 µM [2] was 11%.
Work on `Cn1cc(Br)c(-c2cccc(NC(=O)Nc3ccccc3OC(F)(F)F)c2)n1` [Compound 116087, {[3-(4-bromo-1-methylpyrazol-3-yl)phenyl]-amino}-N-[2-(trifluoromethoxy)phenyl]carboxamide] yielded an IC50 [1, 3] of 200 nM and a remaining activity at 10 µM [2, 5] of 11%.
For `Cn1cc(Br)c(-c2cccc(NC(=O)Nc3ccccc3[N+](=O)[O-])c2)n1` [Compound 116089, {[3-(4-bromo-1-methylpyrazol-3-yl)phenyl]-amino}-N-(2-nitrophenyl)carboxamide], the IC50 [1, 3] was 238 nM and the remaining activity at 10 µM [2, 5] was 27%.
In the case of `COc1ccc(NC(=O)Nc2cccc(-c3nn(C)cc3Br)c2)cc1` [Compound 116091, {[3-(4-bromo-1-methylpyrazol-3-yl)phenyl]-amino}-N-(4-methoxyphenyl)carboxamide], the IC50 [1, 3] is reported as 19 nM and the remaining activity at 10 µM [2] is reported as 12%.
`Cc1ccccc1NC(=O)Nc1cccc(-c2nn(C)cc2Br)c1` [Compound 116092, {[3-(4-bromo-1-methylpyrazol-3-yl)phenyl]amino}-N-(2-methylphenyl)carboxamide] gave an IC50 [1, 3] of 131 nM and a remaining activity at 10 µM [2, 5] of 32%.
`Cn1cc(Br)c(-c2cccc(NC(=O)Nc3ccc(C(F)(F)F)cc3)c2)n1` [Compound 116097, {[3-(4-bromo-1-methylpyrazol-3-yl)phenyl]-amino}-N-[4-(trifluoromethyl)phenyl]carboxamide] gave an IC50 [1, 3] of 65 nM and a remaining activity at 10 µM [2] of 11%.
With `Cn1cc(Br)c(-c2cccc(NC(=O)Nc3cccc(Cl)c3)c2)n1` [Compound 116105, {[3-(4-bromo-1-methylpyrazol-3-yl)phenyl]-amino}-N-(3-chlorophenyl)carboxamide] the IC50 [1, 3] was 39 nM and the remaining activity at 10 µM [2] was 11%.
Work on `Cn1cc(Br)c(-c2cccc(NC(=O)Nc3ccccc3Cl)c2)n1` [Compound 116108, {[3-(4-bromo-1-methylpyrazol-3-yl)phenyl]-amino}-N-[2-chlorophenyl)carboxamide] yielded an IC50 [1, 3] of 249 nM and a remaining activity at 10 µM [2, 5] of 6%.
In the case of `CC(C)c1ccc(NC(=O)Nc2cccc(-c3nn(C)cc3Br)c2)cc1` [Compound 116110, {[3-(4-bromo-1-methylpyrazol-3-yl)phenyl]amino}-N-[4-(methylethyl)phenyl]carboxamide], the IC50 [1, 3] is reported as 338 nM and the “IP3 % of Control” value [2, 5] is reported as 7%.
With `COc1cccc(NC(=O)Nc2cccc(-c3nn(C)cc3Br)c2)c1` [Compound 116111, {[3-(4-bromo-1-methylpyrazol-3-yl)phenyl]-amino}-N-(3-methoxyphenyl)carboxamide] the IC50 [1, 3] was 106 nM and the remaining activity at 10 µM [2, 5] was 7%.
`Cc1cccc(NC(=O)Nc2cccc(-c3nn(C)cc3Br)c2)c1` [Compound 116112, [{3-(4-bromo-1-methylpyrazol-3-yl)phenyl}-amino]-N-(3-methylphenyl)carboxamide] gave an IC50 [1, 3] of 57 nM and a remaining activity at 10 µM [2] of 14%.
In the case of `CN(C(=O)Nc1cccc(-c2nn(C)cc2Br)c1)c1ccc(OC(F)(F)F)cc1` [Compound 116113, [{3-(4-bromo-1-methylpyrazol-3-yl)phenyl}-amino]-N-methyl-N-[4-(trifluoromethoxy)phenyl]carboxamide], the IC50 [1, 3] is reported as 2 nM and the IC50 [2, 4] is reported as 193 nM.
With `Cn1cc(Br)c(-c2cccc(NC(=O)Nc3ccc(C(C)(C)C)cc3)c2)n1` [Compound 116119, N-[4-(tert-butyl)phenyl]{[3-(4-bromo-1-methylpyrazol-3-yl)phenyl]amino}carboxamide] the IC50 [1, 3] was 476 nM and the remaining activity at 10 µM [2, 5] was 17%.
Work on `CN(C)c1ccc(NC(=O)Nc2cccc(-c3nn(C)cc3Br)c2)cc1` [Compound 116122, N-[4-(dimethylamino)phenyl]{[3-(4-bromo-1-methylpyrazol-3-yl)phenyl]amino}carboxamide] yielded an IC50 [1, 3] of 309 nM and a remaining activity at 10 µM [2, 5] of 9%.
Compound `Cn1cc(Br)c(-c2cccc(NC(=O)Cc3ccc(OC(F)(F)F)cc3)c2)n1` [Compound 116137, N-[3-(4-bromo-1-methylpyrazol-3-yl)phenyl]-2-[4-(trifluoromethoxy)-phenyl]acetamide] has an IC50 [1, 3] of 106 nM.
`Cc1c(Cl)cc(NC(=O)Nc2cccc(-c3nn(C)cc3Br)c2)cc1Cl` [Compound 116138, N-(3,5-dichloro-4-methylphenyl){[3-(4-bromo-1-methylpyrazol-3-yl)phenyl]amino}carboxamide] showed an IC50 [1, 3] of 122 nM and a remaining activity at 10 µM [2, 5] of 23%.
With `Cn1cc(Br)c(-c2cccc(NC(=O)Nc3ccc(SC(F)(F)F)cc3)c2)n1` [Compound 116139, {[3-(4-bromo-1-methylpyrazol-3-yl)phenyl]-amino}-N-[4-(trifluoromethylthio)phenyl]carboxamide] the IC50 [1, 3] was 56 nM and the remaining activity at 10 µM [2] was 12%.
`Cn1cc(Br)c(-c2cccc(NC(=O)NC3CCCCC3)c2)n1` [Compound 116141, N-[3-(4-bromo-1-methylpyrazol-3-yl)phenyl]-[cyclohexylamino]carboxamide] was tested, and the IC50 [1, 3] was 81 nM and the IC50 [2, 4] was 114 nM.
`Cn1cc(Br)c(-c2cccc(NC(=O)NCc3ccccc3)c2)n1` [Compound 116143, N-[3-(4-bromo-1-methylpyrazol-3-yl)phenyl]-[phenylmethylamino]carboxamide] gave an IC50 [1, 3] of 47 nM and an IC50 [2, 4] of 120 nM.
Compound `Cn1cc(Br)c(-c2cccc(NC(=O)Nc3ccccc3F)c2)n1` [Compound 116144, {[3-(4-bromo-1-methylpyrazol-3-yl)phenyl]-amino}-N-(2-fluorophenyl)carboxamide] has an IC50 [1, 3] of 37 nM and a remaining activity at 10 µM [2] of 12%.
`Cn1cc(Br)c(-c2cccc(NC(=O)Nc3ccccc3C(N)=O)c2)n1` [Compound 116145, 2-({[3-(4-bromo-1-methylpyrazol-3-yl)phenyl]-amino}carbonylamino)benzamide] gave an IC50 [1, 3] of 7470 nM and a remaining activity at 10 µM [2, 5] of 31%.
In the case of `Cn1cc(Br)c(-c2cccc(NC(=O)Nc3ccc(C#N)cc3)c2)n1` [Compound 116147, {[3-(4-bromo-1-methylpyrazol-3-yl)phenyl]-amino}-N-(4-cyanophenyl)carboxamide], the IC50 [1, 3] is reported as 2 nM and the remaining activity at 10 µM [2] is reported as 12%.
`Cn1cc(Br)c(-c2cccc(NC(=O)Nc3ccccc3C#N)c2)n1` [Compound 116148, {[3-(4-bromo-1-methylpyrazol-3-yl)phenyl]-amino}-N-(2-cyanophenyl)carboxamide] gave an IC50 [1, 3] of 348 nM and a remaining activity at 10 µM [2, 5] of 30%.
`Cn1cc(Br)c(-c2cccc(NC(=O)Cc3cccc(F)c3)c2)n1` [Compound 116174, N-[3-(4-bromo-1-methylpyrazol-3-yl)phenyl]-2-(3-fluorophenyl)acetamide] was tested, and the IC50 [1, 3] was 318 nM and the IC50 [2, 4] was 153 nM.
For `COc1cccc(CC(=O)Nc2cccc(-c3nn(C)cc3Br)c2)c1` [Compound 116175, N-[3-(4-bromo-1-methylpyrazol-3-yl)phenyl]-2-(3-methoxyphenyl)acetamide], the IC50 [1, 3] was 625 nM and the IC50 [2, 4] was 108 nM.
Compound `Cn1cc(Br)c(-c2cccc(NC(=O)Cc3ccccc3F)c2)n1` [Compound 116176, N-[3-(4-bromo-1-methylpyrazol-3-yl)phenyl]-2-(2-fluorophenyl)acetamide] has an IC50 [1, 3] of 662 nM and an IC50 [2, 4] of 129 nM.
`Cn1cc(Br)c(-c2cccc(NC(=O)Cc3ccc([N+](=O)[O-])cc3)c2)n1` [Compound 116177, N-[3-(4-bromo-1-methylpyrazol-3-yl)phenyl]-2-(4-nitrophenyl)acetamide] gave an IC50 [1, 3] of 108 nM and an IC50 [2, 4] of 61 nM.
Compound `COc1ccccc1CC(=O)Nc1cccc(-c2nn(C)cc2Br)c1` [Compound 116178, N-[3-(4-bromo-1-methylpyrazol-3-yl)phenyl]-2-(2-methoxyphenyl)acetamide] has an IC50 [1, 3] of 2300 nM and an IC50 [2, 4] of 165 nM.
`COc1ccc(CNC(=O)Nc2cccc(-c3nn(C)cc3Br)c2)cc1OC` [Compound 116183, N-[3-(4-bromo-1-methylpyrazol-3-yl)phenyl]-[{(3,4-dimethoxyphenyl)methyl}amino-]carboxamide] showed an IC50 [1, 3] of 1010 nM.
In the case of `COc1cc(CNC(=O)Nc2cccc(-c3nn(C)cc3Br)c2)cc(OC)c1OC` [Compound 116184, N-[3-(4-bromo-1-methylpyrazol-3-yl)phenyl]-[{(3,4,5-trimethoxyphenyl)methyl}amino]-carboxamide], the IC50 [1, 3] is reported as 2960 nM.
`Cc1ccccc1CNC(=O)Nc1cccc(-c2nn(C)cc2Br)c1` [Compound 116185, N-[3-(4-bromo-1-methylpyrazol-3-yl)phenyl][{(2-methylphenyl)methyl}amino]carboxamide] gave an IC50 [1, 3] of 769 nM.
In the case of `COc1ccc(CNC(=O)Nc2cccc(-c3nn(C)cc3Br)c2)cc1` [Compound 116189, N-[3-(4-bromo-1-methylpyrazol-3-yl)phenyl][{(4-methoxyphenyl)methyl}amino]carboxamide], the IC50 [1, 3] is reported as 102 nM.
